Data from patent US4152440A, “Novel derivatives of imidazole, and pharmaceutical compositions containing them” (Hoechst Aktiengesellschaft, priority 1975, dated 1979).

Experiments:
[1] = Acute toxicity (LD50), oral by oesophageal tube; details: rat, in vivo, rats, mortality within 7 days
[2] = system: Oxonat rat; assay: Diuresis test in the Oxonat rat (Test 1 of Table 2): uric acid in urine and serum; format: in vivo, male Wistar rats; details: 25 mg/kg oral, n=8, diuresis test (Test 1)
Description: The compounds may therefore be useful as therapeutic agents for various disorders of purine metabolism, particularly in treating primary and secondary gout.
(§1) In this test series, the uricase activity of the rats' livers is inhibited by the application of potassium oxonate (potassium salt of 2,4-dihydroxy-1,3,5-triazine-(6)-carboxylic acid) and thus a gout-like disorder of the purine metabolism is induced. The animals are tested in two different ways.
(§2) 18 hours before the start of the test, the animals were placed separately in metabolism cages. At the same time they were offered unlimited quantities of a 0.5% potassium oxonate solution to drink. On the 1st day of the test, first the urine samples collected were removed (control value) then the substances to be tested were administered in a 0.5% potassium oxonate solution by oesophageal tube into the stomach. The same operation was repeated on the 2nd day of the test. After removal of the 24 hour urine (1st sample after administration of the preparation) the test substances were administered a second time by oesophageal tube. On the 3rd day of the test, the animals were killed and bled, immediately after the urine samples from the preceding 24 hours had been collected (2nd sample after administration of the preparation). Both in the serum obtained and also in the urine samples, the concentration of uric acid was determined enzymatically, using the uricase method (Uricaquant, Boehringer Mannheim), together with a large number of metabolic parameters.

[3] = system: Oxonat rat; assay: Combined metabolic test in the Oxonat rat (Test 2 of Table 2): uric acid in urine and serum; format: in vivo, male Wistar rats; details: for Separation of uric acid in the urine, 1st day: 1st day (urine collected before administration, control value); for Separation of uric acid in the urine, 3rd day / Serum - uric acid, % of control / Serum - uric acid: 3rd day
Description: as §1, §2
This test series differs from the diuresis test described in 1) only in the method of administration of the uricase inhibitor. The animals drink water throughout the test and are given the potassium oxonate in a special feed mixture consisting of normal standard rat food to which 5% fructose, 3% uric acid, 2% potassium oxonate and 0.1% sweetener have been added. The administration of the preparations to be tested and the analysis of the urine samples from the 1st, 2nd and 3rd days of the test and of the serum samples obtained on the 3rd day of the test were carried out as described in the diuresis test.

[4] = 25 mg/kg oral, n=8, combined metabolic test (Test 2)
[5] = 25 mg/kg oral, n=8, combined metabolic test (Test 2), * p<0.05 (Duncan), control 8.64± 3.51
[6] = 50 mg/kg oral, n=8, comparison preparation, own control group (Test 2)

SMILES	LD50 at 168 h [1]	Separation of uric acid in the urine, 1st day ([2]; 1st day (urine collected before administration, control value))	Separation of uric acid in the urine, 2nd day ([2]; 2nd day)	Separation of uric acid in the urine, 3rd day ([2]; 3rd day)	Serum - uric acid, % of control ([2]; 3rd day)	Serum - uric acid ([2]; 3rd day, * p<0.05 (Duncan), control 3.50± 1.15)	Separation of uric acid in the urine, 1st day [3, 4]	Separation of uric acid in the urine, 2nd day [3, 4]	Separation of uric acid in the urine, 3rd day [3, 4]	Serum - uric acid, % of control [3, 4]	Serum - uric acid [3, 5]	Serum - uric acid ([3]; 50 mg/kg oral, n=8, comparison preparation (Test 2), own control 6.70± 0.89)	Separation of uric acid in the urine, 1st day [3, 6]	Separation of uric acid in the urine, 2nd day [3, 6]	Separation of uric acid in the urine, 3rd day [3, 6]
c1ccc(Cn2ccnc2-c2nnn[nH]2)cc1 [Example 24, 1-Benzyl-2-(5-tetrazolyl)-imidazole]	> 4000 mg/kg	2.56± 1.14	3.97± 1.44	3.47± 1.31	-31%	2.41± 0.98 mg %	1.81± 0.61	2.04± 0.80	2.51± 1.55	-30%	6.07± 1.63 mg %				
Cc1ccccc1-n1ccnc1Cc1nnn[nH]1 [Example 11, 1-(o-Tolyl)-2-(5-tetrazolylmethyl)-imidazole]							1.12± 0.64	2.24± 0.57	2.33± 1.70	-31%	6.00± 1.73 mg %				
CC(C)n1ccnc1Cc1nn[nH]n1 [Example 3, 1-Isopropyl-2-(5-tetrazolymethyl)-imidazole]							1.68± 0.51	2.25± 0.41		-19%	6.97± 2.07 mg %				
c1ccc(Cn2ccnc2Cc2nn[nH]n2)cc1 [Example 5, 1-benzyl-2-(5-tetrazolymethyl)-imidazole]							1.78± 0.92	2.76± 1.21	2.28± 1.31	-30%	6.05± 1.96 mg %				
Oc1ncnc2[nH]ncc12 [Allopurinol, 1 H-Pyrazolo[3,4-]pyrimidine-4-ol, reference compound]												6.21± 0.76 mg %	0.99± 0.51	2.16± 0.81	3.82± 1.59
Cn1ccnc1Cc1nnn[nH]1 [Example 1, 1-Methyl-2-(5-tetrazolylmethyl)-imidazole]	> 3150 mg/kg							3.30± 2.12	3.32± 1.94	-44%	4.83± 1.69 mg %				
